Reference: patent US11841369B2, “Method for improving quality of therapeutic cell through real-time glutathione measurement” (CELL2IN, INC., priority 2017, dated 2023)

How the values were obtained:
T cells = assay: Anti-inflammatory effect of treated hUC-MSCs: T cell proliferation, T cell differentiation, Treg cell differentiation; assay type: cell-based; settings: for T cell differentiation capacity / T cell proliferation ability / Treg cell differentiation: hUC-MSCs treated with 1 μM ferrostatin-1 24 h, 0.2 mM GGC 2 h or 2 mM GSH-EE 2 h
Protocol: The inventors observed an effect of the material on stem cells by treating each stem cells with a material for enhancing a glutathione evaluation parameter. When hUC-MSCs were subcultured in a L-AA2G-containing medium, CFU-F, migration capacity, and an anti-inflammatory effect were observed. A CFU-F assay (n=3) was performed by treating hUC-MSCs with 125 or 250 μg/mL of AA2G for three days. As shown in FIGS. 16A and 16B, it was confirmed that, when AA2G was treated, CFU-F increased. In addition, as hUC-MSCs were treated with 125 or 250 μg/mL of AA2G for three days, PDGF-AA-induced migration capacity (n=3) was analyzed. As shown in FIGS. 17A and 17B, it was confirmed that the migration capacity was increased by AA2G treatment. In addition, the reduction in T cell proliferation, a reduction in T cell differentiation, and the promotion of Treg cell differentiation were observed by treating hUC-MSCs with 125 or 250 μg/mL of AA2G for three days.
In addition, hUC-MSCs were cultured with ferrostatin-1 (0.2, 1, 2 and 4 μM) and liproxstatin-1 (0.1, 0.5, 1 and 2 μM), which control a glutathione level in cells by inhibiting lipid oxidation. […] Meanwhile, the hUC-MSCs were treated with 1 μM ferrostatin-1 for 24 hours, 0.2 mM GGC for 2 hours, and 2 mM GSH-EE for 2 hours. As a result, the reduction in T cell proliferation ability and the reduction in T cell differentiation capacity were observed, and promotion of Treg cell differentiation was observed.

hUC-MSCs [1] = assay: CFU-F assay of hUC-MSCs; assay type: cell-based, human
Protocol: (§1) The inventors observed an effect of the material on stem cells by treating each stem cells with a material for enhancing a glutathione evaluation parameter. When hUC-MSCs were subcultured in a L-AA2G-containing medium, CFU-F, migration capacity, and an anti-inflammatory effect were observed. A CFU-F assay (n=3) was performed by treating hUC-MSCs with 125 or 250 μg/mL of AA2G for three days. As shown in FIGS. 16A and 16B, it was confirmed that, when AA2G was treated, CFU-F increased. In addition, as hUC-MSCs were treated with 125 or 250 μg/mL of AA2G for three days, PDGF-AA-induced migration capacity (n=3) was analyzed. As shown in FIGS. 17A and 17B, it was confirmed that the migration capacity was increased by AA2G treatment. In addition, the reduction in T cell proliferation, a reduction in T cell differentiation, and the promotion of Treg cell differentiation were observed by treating hUC-MSCs with 125 or 250 μg/mL of AA2G for three days. […] Meanwhile, hUC-MSCs were cultured with a glutathione precursor such as γ-glutamyl cysteine (GGC, 0.1, 0.25, and 0.5 mM). A CFU-F assay (n=3) was performed by treating hUC-MSCs with each concentration of GGC for 2 hours. […] In addition, SDF1α and PDGF-AA-induced migration capacities (n=3) were analyzed for hUC-MSCs without treatment with GGC, and SDF1α- and PDGF-AA-induced migration abilities (n=3) were analyzed by treating hUC-MSCs with the increasing concentrations of GGC. STI571 was used as a PDGFR kinase inhibitor. As shown in FIGS. 20A to 20C, it was confirmed that, according to an increase in GGC treatment concentration, SDF1α- and PDGF-AA-induced migration capacities were enhanced. A CFU-F assay (n=3) was performed by treating hUC-MSCs with 0.2, 1, 2, and 4 μM ferrostatin-1 and 0.1, 0.5, 1, and 2 μM liproxstatin-1 for 24 hours.

hUC-MSCs [2] = assay: Oxidative stress resistance capacity (ORC) analysis with RSL3; assay type: cell-based, human; settings: hUC-MSCs, 0, 2.5, 5 or 10 μM liproxstatin-1 with 0, 0.5 or 1 μM RSL3; concentration-dependent
Protocol: In addition, GH is calculated as the coefficient of variation or robust coefficient of variation of cellular FR. GRC refers to a value obtained by real-time monitoring of FR after living cells are treated with an oxidizing agent, as calculated by dividing a value obtained by subtracting AUC of a group treated with 0.1-100 mM N-ethylmaleimide (NEM) from FR AUC of an oxidizing agent (diamide, H2O2, etc.)-treated group by a value obtained by subtracting the AUC of NEM-treated group from AUC of the untreated control, and multiplying the resulting value by 100. The FR of the NEM-treated group is a value for increasing the sensitivity of a GRC value by treating it as the blank value of the FR of the cells of interest. […] To remove the MitoFreSH-Tracer from the medium before measurement, the medium was exchanged with fresh 10 mM HEPES-containing HBSS, and a fluorescence image was obtained using a confocal imaging system, Operetta. By comparing GSH levels quantified from control cells not treated with RSL3 or control cells before treated with RSL3, the distribution of GSH expression-changed cells was calculated. Based on the point where the distribution histogram is divided into two peaks, the cells were divided into GSH^High cells (right peak) and GSH^Low cells (left peak), and then a ratio of corresponding cells was expressed as a percentage (%). […]

hES-MSCs [3] = assay: CFU-F of FreSH-Tracer-sorted hES-MSCs; assay type: cell-based, human
Protocol: Twelve hours after hES-MSCs were seeded in […] tissue culture media at a density of 3×10^6 cells/mL, the cells were washed two times with 30 mL of PBS, and labeled with an EGM-2 MV culture solution containing 2 μM FreSH for 2 hours. After the two hours, the cells were washed with 2 μM FreSH-containing PBS twice and treated with a TrypsinLE (Invitrogen) solution to detach the cells, and then trypsin was inactivated with a fresh EGM-2 MV medium containing 2 μM FreSH. Afterward, the cells were centrifuged at 4° C. and 2000 rpm for 20 minutes, and resuspended in a fresh EGM-2 MV medium containing 2 μM FreSH to have a density of 5×10^7 cells/mL. The suspension was diluted 1/5 with PBS containing 2 μM FreSH immediately before loading for FACS (diluted by approximately 1 mL at a time to maintain a temperature of 4° C.).
Afterward, under the following conditions, FACS Instruction (BD ARIAIII, laser at wavelengths of 405 (for measuring F510) and 488 (for measuring F580), nozzle size: 100 μm, 2,000-3,000 events/sec), FACS analysis was performed by gating the cells corresponding to the upper 3.9-35% and the lower 3.9-35% of total cells according to the F510/F580 ratio. […]
Main factors for determining the therapeutic efficacy of hBM-MSCs, namely a colony forming unit-fibroblast (CFU-F) and a graft survival rate, were evaluated in cell culture models. […]

hES-MSCs [4] = assay: PDGF-AA-induced cell migration of unsorted hES-MSCs; assay type: cell-based, human; settings: hES-MSCs not sorted by FreSH-Tracer
Protocol: Main factors for determining the therapeutic efficacy of hBM-MSCs, namely a colony forming unit-fibroblast (CFU-F) and a graft survival rate, were evaluated in cell culture models.
In order to test whether direct control of a GSH level in stem cells leads to changes in cell functions, hES-MSCs sorted by FreSH-Tracer were treated with buthionine sulfoximine (BSO; glutathione synthesis inhibitor) and glutathione ethyl ester (GSH-EE). When GSH was decreased in cells by treating GSH^High cells with BSO (80 μM, 24 h), it was confirmed that CFU-F increased, and on the other hand, when GSH was increased by treating GSH^Low cells with GSH-EE (1 mM, 2 h), it was confirmed that CFU-F decreased (FIG. 13A). In addition, it was confirmed that, when hES-MSCs which were not sorted by FreSH-Tracer were treated with BSO or GSH-EE, PDGF-AA-induced cell migration capacity was decreased or increased, respectively (FIG. 13B).

hUC-MSCs [5] = assay: SDF1α- and PDGF-AA-induced migration capacity of hUC-MSCs; assay type: cell-based, human; settings: increasing GGC concentration (0.1, 0.25 mM)
Protocol: as §1, with “enhanced.” for “enhanced. A CFU-F assay (n=3) was performed by treating hUC-MSCs with 0.2, 1, 2, and 4 μM ferrostatin-1 and 0.1, 0.5, 1, and 2 μM liproxstatin-1 for 24 hours.”

Clc1cccc(CN=C2Nc3ccccc3NC23CCNCC3)c1 [liproxstatin-1]
anti-inflammatory effect of the hUC-MSCs (T cells; ferrostatin-1 or liproxstatin-1 treatment (FIGS. 27, 28A to 28C)): did not alter
CFU-F (hUC-MSCs [1]; ferrostatin-1 0.2, 1, 2, 4 μM or liproxstatin-1 0.1, 0.5, 1, 2 μM, 24 hours): improved
ratio of the GSH^High cells (ORC) (hUC-MSCs [2]): increased

CCCCS(=N)(=O)CCC(N)C(=O)O (centres unmarked) [BSO, buthionine sulfoximine]
CFU-F (hES-MSCs [3]; GSH^High hES-MSCs, BSO 80 μM, 24 h): increased
PDGF-AA-induced cell migration capacity (hES-MSCs [4]): decreased

CCOC(=O)CNC(=O)[C@H](CS)NC(=O)CC[C@H](N)C(=O)O [GSH-EE, glutathione ethyl ester]
T cell differentiation capacity (T cells): reduction
T cell proliferation ability (T cells): reduction
Treg cell differentiation (T cells): promotion
CFU-F (hES-MSCs [3]; GSH^Low hES-MSCs, GSH-EE 1 mM, 2 h): decreased
PDGF-AA-induced cell migration capacity (hES-MSCs [4]): increased

N[C@@H](CCC(=O)N[C@@H](CS)C(=O)O)C(=O)O [GGC, γ-glutamyl cysteine]
T cell differentiation capacity (T cells): reduction
T cell proliferation ability (T cells): reduction
Treg cell differentiation (T cells): promotion
anti-inflammatory effect (T cells; hUC-MSCs with GGC treatment (FIGS. 27, 28A to 28C)): no change
CFU-F (hUC-MSCs [1]; GGC 0.1, 0.25 and 0.5 mM, 2 hours): increased
PDGF-AA-induced migration capacity (hUC-MSCs [5]): enhanced
SDF1α-induced migration capacity (hUC-MSCs [5]): enhanced
